Results taken from ChEMBL document CHEMBL5500336, “Recent advances in developing modified C14 side chain pleuromutilins as novel antibacterial agents” (Eur J Med Chem, 2024).
In brackets after ≈: the same amount, converted by molar mass.

What was measured:
[1] = system: Staphylococcus aureus; assay: Antibacterial activity against Methicillin-resistant Staphylococcus aureus assessed as bacterial growth inhibition; format: functional
[2] = system: Staphylococcus epidermidis; assay: Antibacterial activity against […] Staphylococcus epidermidis ATCC 35984 after 16 to 18 hrs by CLSI protocol based broth microdilution assay; format: functional; conditions: time 16-18 hrs
[3] = system: Staphylococcus epidermidis; assay: Antibacterial activity against methicillin-sensitive Staphylococcus epidermidis ATCC 12228 assessed as reduction in bacterial growth incubated for 18 hrs by agar dilution method; format: functional
[4] = system: Staphylococcus aureus; assay: Antibacterial activity against Methicillin-sensitive Staphylococcus aureus assessed as bacterial growth inhibition; format: functional
[5] = system: Staphylococcus aureus; assay: Antibacterial activity against […] Staphylococcus aureus ATCC 43300 assessed as reduction in bacterial growth by CLSI protocol based broth microdilution method; format: functional
[6] = system: Staphylococcus aureus; assay: Antimicrobial activity against […] Staphylococcus aureus ATCC 33591 assessed as inhibition of microbial growth measured after 20 to 24 hrs incubation by CLSI method; format: functional; conditions: time 20-24 hrs
[7] = system: Staphylococcus aureus; assay: Antimicrobial activity against […] Staphylococcus aureus ATCC 43300 assessed as inhibition of microbial growth measured after 20 to 24 hrs incubation by CLSI method; format: functional; conditions: time 20-24 hrs
[8] = system: Staphylococcus aureus; assay: Antibacterial activity against […] Staphylococcus aureus ATCC 43300 assessed as inhibition of bacterial growth measured after 24 hrs by MH broth based assay; format: functional
[9] = system: Staphylococcus aureus; assay: Antibacterial activity against […] Staphylococcus aureus ATCC 43300 assessed as inhibition of bacterial growth; format: functional
[10] = system: Staphylococcus aureus; assay: Antibacterial activity against […] Staphylococcus aureus ATCC 43300 assessed as reduction in microbial growth after 16 hrs by broth microdilution method; format: functional
[11] = system: Escherichia coli; assay: Antibacterial activity against Escherichia coli ATCC 25922 assessed as bacterial growth inhibition measured after 18 hrs by CLSI based method; format: functional
[12] = system: Staphylococcus aureus; assay: Antibacterial activity against […] Staphylococcus aureus BNCC 337371 assessed as bacterial growth inhibition incubated for 18 to 24 hrs by NCCLS based assay; format: functional; conditions: time 18-24 hrs
[13] = system: Staphylococcus epidermidis; assay: Antibacterial activity against […] Staphylococcus epidermidis ATCC 51625 assessed as inhibition of bacterial growth measured after 24 hrs by MH broth based assay; format: functional
[14] = system: Staphylococcus aureus; assay: Antibacterial activity against […] Staphylococcus aureus ATCC 25923 assessed as reduction in bacterial growth measured after 24 hrs by MH broth based assay; format: functional
[15] = Cytotoxicity against mouse RAW264.7 cells assessed as reduction in cell viability incubated for 48 hrs by MTT assay; format: toxicity, cell-based
[16] = system: Staphylococcus aureus; assay: Antimicrobial activity against methicillin-Staphylococcus aureus 29213 assessed as inhibition of microbial growth incubated for 24 hrs by broth-microdilution assay; format: functional
[17] = system: Staphylococcus aureus; assay: Antimicrobial activity against […] Staphylococcus aureus ATCC 33591 assessed as reduction in microbial growth incubated for 24 hrs by CLSI protocol based analysis; format: functional
[18] = system: Staphylococcus; assay: Antimicrobial activity against methicillin-resistant coagulase negative Staphylococcus P1369 at 1 nmol relative to control; format: functional
[19] = system: Staphylococcus aureus; assay: Antibacterial activity against […] Staphylococcus aureus ATCC 33592 assessed as bacterial growth inhibition; format: functional
[20] = system: Streptococcus pneumoniae; assay: Antibacterial activity against Streptococcus pneumoniae B1 assessed as reduction in bacterial growth; format: functional
[21] = system: Staphylococcus aureus; assay: Antibacterial activity against methicillin-sensitive Staphylococcus aureus assessed as reduction in microbial growth; format: functional
[22] = system: Staphylococcus aureus; assay: Antibacterial activity against Staphylococcus aureus ATCC 25923 assessed as reduction in bacterial growth incubated for 24 hrs by serial dilution method; format: functional

C=C[C@]1(C)C[C@@H](OC(=O)CSCc2csc(NC(=O)CN3CCCCC3)n2)[C@]2(C)[C@H](C)CC[C@]3(CCC(=O)[C@H]32)[C@@H](C)[C@@H]1O
MIC [1]: 0.063 µg/mL (≈ 0.0997 µM)
MIC [2]: 0.063 µg/mL (≈ 0.0997 µM)
MIC [3]: 0.063 µg/mL (≈ 0.0997 µM)
MIC [4]: 0.063 µg/mL (≈ 0.0997 µM)

C=C[C@]1(C)C[C@@H](OC(=O)CSCc2csc(NC(=O)CN3CCC[C@@H]3CO)n2)[C@]2(C)[C@H](C)CC[C@]3(CCC(=O)[C@H]32)[C@@H](C)[C@@H]1O
MIC [1]: 0.063 µg/mL (≈ 0.0972 µM)
MIC [2]: 0.063 µg/mL (≈ 0.0972 µM)
MIC [3]: 0.063 µg/mL (≈ 0.0972 µM)
MIC [5]: 0.063 µg/mL (≈ 0.0972 µM)
MIC [4]: 0.063 µg/mL (≈ 0.0972 µM)

C=C[C@]1(C)C[C@@H](OC(=O)CN2CCN(c3ccc(C(=O)/C=C/c4ccc(N)cc4)cc3)CC2)[C@]2(C)[C@H](C)CC[C@]3(CCC(=O)[C@H]32)[C@@H](C)[C@@H]1O
MIC [6]: 0.5 µg/mL
MIC [7]: 0.5 µg/mL

C=C[C@]1(C)C[C@@H](OC(=O)CSc2ccc(NC(=O)c3ccccc3F)cc2)[C@]2(C)[C@H](C)CC[C@]3(CCC(=O)[C@H]32)[C@@H](C)[C@@H]1O
MBC [8]: 0.062 µg/mL (≈ 0.102 µM)
MIC [9]: 0.03 µg/mL (≈ 0.0494 µM)

C=C[C@]1(C)C[C@@H](OC(=O)CSc2ccccc2NC(=O)c2cccc(F)c2)[C@]2(C)[C@H](C)CC[C@]3(CCC(=O)[C@H]32)[C@@H](C)[C@@H]1O
MIC [10]: 0.125 µg/mL

C=C[C@]1(C)C[C@@H](OC(=O)CN2CCN(c3ccc(C4CC(c5ccccc5[N+](=O)[O-])=NN4)cc3)CC2)[C@]2(C)[C@H](C)CC[C@]3(CCC(=O)[C@H]32)[C@@H](C)[C@@H]1O (some centres undefined)
MIC [11]: 2 µg/mL (≈ 2.81 µM)
MIC [6]: 2 µg/mL
MIC [7]: 2 µg/mL

C=C[C@]1(C)C[C@@H](OC(=O)CSc2nc(C)c(C(=O)OCC)c(C)n2)[C@]2(C)[C@H](C)CC[C@]3(CCC(=O)[C@H]32)[C@@H](C)[C@@H]1O
MIC [12]: 0.015 µg/mL (≈ 0.0262 µM)
MIC [13]: 0.015 µg/mL (≈ 0.0262 µM)
MIC [14]: ≤ 0.016 µg/mL

C=C[C@]1(C)C[C@@H](OC(=O)CSc2ccc(NC(=O)c3cccc(F)c3)cc2)[C@]2(C)[C@H](C)CC[C@]3(CCC(=O)[C@H]32)[C@@H](C)[C@@H]1O
MBC [8]: 0.03 µg/mL (≈ 0.0494 µM)
MIC [9]: 0.03 µg/mL (≈ 0.0494 µM)

C=C[C@]1(C)C[C@@H](OC(=O)CSC2=NC(C)=C(C(C)=O)C(C)N2)[C@]2(C)[C@H](C)CC[C@]3(CCC(=O)[C@H]32)[C@@H](C)[C@@H]1O (some centres undefined)
MIC [12]: 0.125 µg/mL (≈ 0.229 µM)
MIC [13]: 0.25 µg/mL (≈ 0.459 µM)
MIC [14]: 0.25 µg/mL (≈ 0.459 µM)

C=C[C@]1(C)C[C@@H](OC(=O)CSc2nnc(-c3cccs3)o2)[C@]2(C)[C@H](C)CC[C@]3(CCC(=O)[C@H]32)[C@@H](C)[C@@H]1O
IC50 at 48 h [15]: 17.9 µg/mL (≈ 32.8 µM)
MIC [16]: 0.125 µg/mL

C=C[C@]1(C)C[C@@H](OC(=O)CSc2nc3c(F)cccc3o2)[C@]2(C)[C@H](C)CC[C@]3(CCC(=O)[C@H]32)[C@@H](C)[C@@H]1O
MIC [17]: 0.125 µg/mL

C=C[C@]1(C)C[C@@H](OC(=O)CN2CCN(c3ccc(C4CC(N)=NC=C4c4ccccc4[N+](=O)[O-])cc3)CC2)[C@]2(C)[C@H](C)CC[C@]3(CCC(=O)[C@H]32)[C@@H](C)[C@@H]1O (some centres undefined)
MIC [11]: 8 µg/mL (≈ 10.8 µM)
MIC [6]: 1 µg/mL
MIC [7]: 1 µg/mL

C=C[C@]1(C)C[C@@H](OC(=O)CSc2nc(C)c(C(C)=O)c(C)n2)[C@]2(C)[C@H](C)CC[C@]3(CCC(=O)[C@H]32)[C@@H](C)[C@@H]1O
MIC [12]: 0.015 µg/mL (≈ 0.0276 µM)
MIC [13]: 0.03 µg/mL (≈ 0.0553 µM)
MIC [14]: 0.016 µg/mL (≈ 0.0295 µM)

C=C[C@]1(C)C[C@@H](OC(=O)CSc2ccc(NC(=O)c3ccc(F)cc3)cc2)[C@]2(C)[C@H](C)CC[C@]3(CCC(=O)[C@H]32)[C@@H](C)[C@@H]1O
MBC [8]: 0.03 µg/mL (≈ 0.0494 µM)
MIC [9]: 0.03 µg/mL (≈ 0.0494 µM)

C=C[C@]1(C)C[C@@H](OC(=O)CSCc2csc(N)n2)[C@]2(C)[C@H](C)CC[C@]3(CCC(=O)[C@H]32)[C@@H](C)[C@@H]1O
MIC [1]: 0.063 µg/mL (≈ 0.124 µM)
MIC [2]: 0.063 µg/mL (≈ 0.124 µM)
MIC [3]: 0.063 µg/mL (≈ 0.124 µM)
MIC [4]: 0.063 µg/mL (≈ 0.124 µM)

C=C[C@]1(C)C[C@@H](OC(=O)CN2CCN(c3ccc(C(=O)/C=C/c4ccc([N+](=O)[O-])cc4)cc3)CC2)[C@]2(C)[C@H](C)CC[C@]3(CCC(=O)[C@H]32)[C@@H](C)[C@@H]1O
MIC [6]: 0.5 µg/mL
MIC [7]: 0.5 µg/mL

C=C[C@]1(C)C[C@@H](OC(=O)CSc2ccc(NC(=O)c3cccs3)cc2)[C@]2(C)[C@H](C)CC[C@]3(CCC(=O)[C@H]32)[C@@H](C)[C@@H]1O
MBC [8]: 0.03 µg/mL (≈ 0.0504 µM)
MIC [9]: 0.03 µg/mL (≈ 0.0504 µM)

C=C[C@]1(C)C[C@@H](OC(=O)CS[C@@H]2CC[C@@H](N)C[C@H]2O)[C@]2(C)[C@H](C)CC[C@]3(CCC(=O)[C@H]32)[C@@H](C)[C@@H]1O [LEFAMULIN]
Activity [18]: 3.4%

C=C[C@]1(C)C[C@@H](OC(=O)CSC2=NC(C)=C(C(=O)OC)C(C)N2)[C@]2(C)[C@H](C)CC[C@]3(CCC(=O)[C@H]32)[C@@H](C)[C@@H]1O (some centres undefined)
MIC [12]: 0.25 µg/mL (≈ 0.446 µM)
MIC [13]: 0.125 µg/mL (≈ 0.223 µM)
MIC [14]: 0.25 µg/mL (≈ 0.446 µM)

C=C[C@]1(C)C[C@@H](OC(=O)CSc2ccc(NC(=O)c3ccco3)cc2)[C@]2(C)[C@H](C)CC[C@]3(CCC(=O)[C@H]32)[C@@H](C)[C@@H]1O
MBC [8]: 0.03 µg/mL (≈ 0.0517 µM)
MIC [9]: 0.015 µg/mL (≈ 0.0259 µM)

C=C[C@]1(C)C[C@@H](OC(=O)CSc2ccccc2N)[C@]2(C)[C@H](C)CC[C@]3(CCC(=O)[C@H]32)[C@@H](C)[C@@H]1O
MIC [19]: 0.5 µg/mL (≈ 1.03 µM)
MIC [10]: 0.016 µg/mL
MIC [20]: 0.016 µg/mL (≈ 0.0329 µM)

C=C[C@]1(C)C[C@@H](OC(=O)CSc2ccccc2NC(=O)c2ccccc2C)[C@]2(C)[C@H](C)CC[C@]3(CCC(=O)[C@H]32)[C@@H](C)[C@@H]1O
MIC [10]: 0.25 µg/mL

C=C[C@]1(C)C[C@@H](OC(=O)CSc2ccc(NC(=O)c3ccc(C#N)cc3)cc2)[C@]2(C)[C@H](C)CC[C@]3(CCC(=O)[C@H]32)[C@@H](C)[C@@H]1O
MBC [8]: 0.03 µg/mL (≈ 0.0488 µM)
MIC [9]: 0.015 µg/mL (≈ 0.0244 µM)

C=C[C@]1(C)C[C@@H](OC(=O)CSc2cccc(NC(=O)Nc3ccc(C#N)cc3)c2)[C@]2(C)[C@H](C)CC[C@]3(CCC(=O)[C@H]32)[C@@H](C)[C@@H]1O
MIC [21]: 0.06 µg/mL

C=C[C@]1(C)C[C@@H](OC(=O)CSc2nc(C)c(C(=O)OC)c(C)n2)[C@]2(C)[C@H](C)CC[C@]3(CCC(=O)[C@H]32)[C@@H](C)[C@@H]1O
MIC [12]: 0.015 µg/mL (≈ 0.0268 µM)
MIC [13]: 0.03 µg/mL (≈ 0.0537 µM)
MIC [14]: 0.016 µg/mL (≈ 0.0286 µM)

C=C[C@]1(C)C[C@@H](OC(=O)CN2CCN(C(=O)CNC[C@H]3CN(c4ccc(Cl)cc4)C(=O)O3)CC2)[C@]2(C)[C@H](C)CC[C@]3(CCC(=O)[C@H]32)[C@@H](C)[C@@H]1O
MIC [22]: 0.008 µg/mL (≈ 0.0112 µM)

C=C[C@]1(C)C[C@@H](OC(=O)CSC2=NC(C)=C(C(=O)OCC)C(C)N2)[C@]2(C)[C@H](C)CC[C@]3(CCC(=O)[C@H]32)[C@@H](C)[C@@H]1O (some centres undefined)
MIC [12]: 0.06 µg/mL (≈ 0.104 µM)
MIC [13]: 0.06 µg/mL (≈ 0.104 µM)
MIC [14]: 0.125 µg/mL (≈ 0.217 µM)
